Reference: patent US12686657B2, “Anti-inflammatory carboxamide derivatives” (BIOMEDCODE HELLAS SA, priority 2021, dated 2026)
Where two headings read alike, the source gives them in different places.

Legend:
Format in all cases: cell-based, mice
hTNFtg SFs [1] = experiment: Legendplex pro-inflammatory chemokine panel on hTNFTg synovial fibroblasts
Method: (§1) SFs were isolated as previously described by Armaka et al., 2009, from the ankle joints of hTNFtg or CBA/C57BL6 wild type (wt) littermates. Briefly, ankle joints were digested with Collagenase IV (Sigma Aldrich, C5138) for 45 minutes at a 37° C. shaking waterbath and after 5 days in culture at 37° C. and 5% CO2, a depletion of CD45+ lineage cells was performed using a Biotin anti-mouse CD45 Antibody (Biolegend, 103104) and Dynabeads™ Biotin Binder (ThermoFisher 11047), according to the manufacturer's protocol. After 10 days in culture, SFs were seeded overnight (O/N) at a concentration of 2×10^4 cells/well in a 96 well plate in 1×DMEM, supplemented with 100 U/ml Penicillin Streptomycin (P/S) and 10% Fetal Bovine Serum (FBS). The next day the cells were synchronized by starvation that included their O/N plating in low serum medium (0.5% FBS). Following the O/N starvation, the hTNFg and the WT SFs were treated with different concentrations of the experimental compounds. The SFs were at the same time activated with 10 ng/ml hTNF (Peprotech, 300-01A). 48 h following the treatment the cell culture supernatants were collected and analyzed by ELISA (R&S Systems, Duoset, DY478 and DY760) according to the manufacturer's protocol, for the detection of CCL5/Rantes and CCL20/Mip3, two known inflammatory chemokines. The IC50 values were determined as the concentration of the compounds required to reduce the levels of secreted CCL5 and CCL20 by 50%.
(§2) The supernatants of the SFs were also analyzed using the Mouse pro-inflammatory chemokine panel from Legendplex™ (Biolegend, 740007), according to manufacturer's instructions, for the simultaneous detection of 13 Mouse chemokines.
(§3) The anti-inflammatory potential of the test compounds 51, 52, 53, E and F on SFs was also assessed using the Mouse pro-inflammatory chemokine panel from Legendplex that allows the simultaneous detection of 13 Mouse chemokines. The effect of compound 51 on SFs was assessed at a dose of 25 μM, while the effect of the test compounds 52, 53, E and F was assessed at a dose of 10 μM. Numbers represent percentages of the chemokine levels secreted from the treated SFs compared to 100% levels of the chemokines detected in the untreated cells (i.e. either hTNFTg SFs or hTNF-activated wt SFs).
(§4) Table 9 summarizes the effect of the test compounds 51, 52 and 53, E and F on the inflammatory chemokines secreted from activated SFs. WT SFs were stimulated with 10 ng/ml hTNF.

hTNFtg SFs [2] = experiment: CCL5 and CCL20 ELISA on hTNFtg synovial fibroblasts; settings: Mus musculus, Fibroblast; for activity at 10 µM: compound 10 μM; for activity at 10 µM / activity at 50 µM: 48 h; for activity at 50 µM: compound 50 μM
Method: Primary SFs were derived from a) human TNF transgenic (hTNFTg) mice (Keffer et al., 1991) as well as from b) CBA/C57BL6 wild type mice.
hTNFtg mice overexpress human TNF, resulting in the spontaneous development of arthritis.
as §1
Table 7 summarizes the reduction of CCL5 and CCL20 levels achieved with the test compounds of the invention. Data are presented as percentages of the chemokine levels detected in treated cells compared to 100% levels of the chemokines detected in the untreated cells.
Table 8 summarizes the values of IC50 and toxicity for the test compounds of the invention. Dose response curves regarding the WT SFs were produced with 10 ng/ml hTNF stimulation for all compounds, with the exception of the compounds E and F, where WT cells were induced using hTNF at 1 ng/ml: […]

hTNF-activated wt SFs = experiment: Legendplex pro-inflammatory chemokine panel on hTNF-activated wt synovial fibroblasts; settings: 10 ng/ml hTNF
Method: as §1, §2, §3, §4

SFs and PMCs = experiment: Compound cytotoxicity, Crystal Violet assay
Method: The toxicity of the test compounds was assessed at several concentrations using the Crystal Violet assay on both SFs and PMCs. Adherent viable cells were Methanol fixed and stained with Crystal Violet. Optical density was quantified at […], as described in Feoktistova et al., 2016.

[3] = system: LPS activated thioglyclolate peritoneal macrophages; experiment: Cytokines and chemokines secreted from LPS activated thioglycolate peritoneal macrophages (Legendplex panels); settings: 10 μM compound; LPS 100 ng/ml; 48 h
Method: Activated peritoneal macrophages were isolated from the peritoneal lavage of C57BL/6 wild type mice, 5 days after the peritoneal administration of 3% Thioglucolate, as described in Jiménez-García et al., 2015. The isolated cells were seeded at a concentration of 5×10^5 cells/well in a 48 well plate. 4 h after isolation, cells were starved O/N in Optimem (Gibco, 11058, 100 U/ml P/S). The cells were further activated with 100 ng/ml Lipopolysaccharide (LPS, Sigma-Aldrich, L2630) along with the test compounds at a dose of 10 μM. 48 h later the supernatants of the cell cultures were collected and analyzed using the Mouse 13 plex Legendplex Chemokine (Biolegend, 740007) and Cytokine (Bioloegend, 740446) panels according the manufacturer's instructions.
The same protocol was repeated reducing the concentration of LPS to 10 ng/ml in order to determine the efficiency of the tested compounds.
In order to assess the anti-inflammatory activity of the compounds of the invention, their ability to reduce the levels of secreted cytokines and chemokines from activated macrophages, which are key inflammatory cells of the immune system, was measured. Test compounds 51, 52 and 53, E and F were tested at a dose of 10 μM on LPS induced thioglycolate derived peritoneal macrophages. Chemokine and cytokine analyses were performed using the Mouse pro-inflammatory panels from Legendplex and their levels are presented as a percentage of the levels detected in the untreated control cells (Tables 6a and 6b). Data presented for compounds 51, 52, 53 refer to LPS stimulation of 100 ng/ml, while compounds E and F were tested upon LPS stimulation of 10 ng/ml.

[4] = read-out: CCL5 hTNFtg, percentage of level in untreated cells
[5] = read-out: CCL20 hTNFtg, percentage of level in untreated cells
[6] = read-out: IC50 (μM) CCL5 hTNFtg
[7] = read-out: IC50 (μM) CCL20 hTNFtg

| Compound | activity at 10 µM (hTNFtg SFs [2]; [4]) | activity at 10 µM (hTNFtg SFs [2]; [5]) | activity at 50 µM (hTNFtg SFs [2]; [4]) | activity at 50 µM (hTNFtg SFs [2]; [5]) | IC50 (hTNFtg SFs [2]; [6]) | IC50 (hTNFtg SFs [2]; [7]) | Cell Toxicity (SFs and PMCs) | GMCSF level, percentage of untreated control cells [3] | IL1α level, percentage of untreated control cells [3] | IL6 level, percentage of untreated control cells [3] | IL12p70 level, percentage of untreated control cells [3] | IL27 level, percentage of untreated control cells [3] | MCP1 level, percentage of untreated control cells [3] | MIP1β level, percentage of untreated control cells [3] | other results |
| --- | --- | --- | --- | --- | --- | --- | --- | --- | --- | --- | --- | --- | --- | --- | --- |
| COc1cc(N)c(Cl)cc1C(=O)NCC1(c2ccc(Cl)cc2)CCCCC1 [Compound 51, 4-amino-5-chloro-N-((1-(4-chlorophenyl)cyclohexyl)methyl)-2-methoxybenzamide] | 46% | 16% | 47% | 13% | 2.6 µM | 1 µM | >100 µM | 80% | 36% | 44% | 54% | 77% | 27% | 90% | EOTAXIN hTNFTg, percentage of level in untreated cells (hTNFtg SFs [1]; compound 25 μM): 24%; KC hTNFTg, percentage of level in untreated cells (hTNFtg SFs [1]; compound 25 μM): 80%; LIX hTNFTg, percentage of level in untreated cells (hTNFtg SFs [1]; compound 25 μM): 22%; MCP1 hTNFTg, percentage of level in untreated cells (hTNFtg SFs [1]; compound 25 μM): 89%; EOTAXIN WT, percentage of level in untreated cells (hTNF-activated wt SFs; compound 25 μM): 7%; KC WT, percentage of level in untreated cells (hTNF-activated wt SFs; compound 25 μM): 41%; LIX WT, percentage of level in untreated cells (hTNF-activated wt SFs; compound 25 μM): 3%; MCP1 WT, percentage of level in untreated cells (hTNF-activated wt SFs; compound 25 μM): 59% |
| COc1cc(N)c(Cl)cc1C(=O)NCC1(c2ccc(Cl)cc2)CCCCCC1 [Compound 52, 4-amino-5-chloro-N-((1-(4-chlorophenyl)cycloheptyl)methyl)-2-methoxybenzamide] | 50% | 67% | 29% | 48% | 4.2 µM | 15 µM | >200 µM | 36% | 9% | 7% | 23% | 19% | 28% | 51% | EOTAXIN hTNFTg, percentage of level in untreated cells (hTNFtg SFs [1]; compound 10 μM): 6%; KC hTNFTg, percentage of level in untreated cells (hTNFtg SFs [1]; compound 10 μM): 49%; LIX hTNFTg, percentage of level in untreated cells (hTNFtg SFs [1]; compound 10 μM): 48%; MCP1 hTNFTg, percentage of level in untreated cells (hTNFtg SFs [1]; compound 10 μM): 55%; EOTAXIN WT, percentage of level in untreated cells (hTNF-activated wt SFs; compound 10 μM): 26%; KC WT, percentage of level in untreated cells (hTNF-activated wt SFs; compound 10 μM): 34%; LIX WT, percentage of level in untreated cells (hTNF-activated wt SFs; compound 10 μM): 23%; MCP1 WT, percentage of level in untreated cells (hTNF-activated wt SFs; compound 10 μM): 40% |
